Tested on: KRAS PDC multicell spheroid viability
Assay: Anticancer human tumor 825966-067-R-J1-PDC patient-derived colon carcinoma cell line growth inhibition [KRAS2]
Details: for IC50: curve of first compound; for viability, T/C: stronger effect = lower value
Method in brief: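 Combination screen of spheroid viability in tumor-cell co-cultures with endothelial (HUVEC) and mesenchymal stem cell stroma. Each agent was tested in half-log dilutions, topping at clinical Cmax or at 10 microM without a known Cmax.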

[1] = second compound 0.1 µM, first compound 0.0316 µM
[2] = second compound 0.1 µM, first compound 0.1 µM
[3] = second compound 0.1 µM, first compound 0.316 µM
[4] = second compound 0.1 µM, first compound 1 µM
[5] = second compound 0.1 µM, first compound 3.16 µM
[6] = second compound 0.1 µM, first compound 10 µM
[7] = second compound 0.316 µM, first compound 0.0316 µM
[8] = second compound 0.316 µM, first compound 0.1 µM
[9] = second compound 0.316 µM, first compound 0.316 µM
[10] = second compound 0.316 µM, first compound 1 µM
[11] = second compound 0.316 µM, first compound 3.16 µM
[12] = second compound 0.316 µM, first compound 10 µM
[13] = second compound 1 µM, first compound 0.0316 µM
[14] = second compound 1 µM, first compound 0.1 µM
[15] = second compound 1 µM, first compound 0.316 µM
[16] = second compound 1 µM, first compound 1 µM
[17] = second compound 1 µM, first compound 3.16 µM
[18] = second compound 1 µM, first compound 10 µM
[19] = second compound 3.16 µM, first compound 0.0316 µM
[20] = second compound 3.16 µM, first compound 0.1 µM
[21] = second compound 3.16 µM, first compound 0.316 µM
[22] = second compound 3.16 µM, first compound 1 µM
[23] = second compound 3.16 µM, first compound 3.16 µM
[24] = second compound 3.16 µM, first compound 10 µM
[25] = second compound 10 µM, first compound 0.0316 µM
[26] = second compound 10 µM, first compound 0.1 µM
[27] = second compound 10 µM, first compound 0.316 µM
[28] = second compound 10 µM, first compound 1 µM
[29] = second compound 10 µM, first compound 3.16 µM
[30] = second compound 10 µM, first compound 10 µM
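Also: spheroids exposed to compounds for 7 days.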
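For viability, T/C in this document: 100% = DMSO vehicle control viability.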

Structure (SMILES)	IC50 (second compound 0.1 µM) [µM]	IC50 (second compound 0.316 µM) [µM]	IC50 (second compound 1 µM) [µM]	IC50 (second compound 3.16 µM) [µM]	IC50 (second compound 10 µM) [µM]	viability, T/C [1] [%]	viability, T/C [2] [%]	viability, T/C [3] [%]	viability, T/C [4] [%]	viability, T/C [5] [%]	viability, T/C [6] [%]	viability, T/C [7] [%]	viability, T/C [8] [%]	viability, T/C [9] [%]	viability, T/C [10] [%]	viability, T/C [11] [%]	viability, T/C [12] [%]	viability, T/C [13] [%]	viability, T/C [14] [%]	viability, T/C [15] [%]	also measured
CCNC(=O)CC1N=C(c2ccc(Cl)cc2)c2cc(OC)ccc2-n2c(C)nnc21 (stereo not given) + C=CC(=O)N1CCN(c2nc(=O)n(-c3c(C)ccnc3C(C)C)c3nc(-c4c(O)cccc4F)c(F)cc23)C(C)C1	> 10	> 10	> 10	> 10	1.29	81	80.9	108	111	99.5	81.8	79.6	76.6	68	104	85.6	85.2	80.9	91.5	102	viability, T/C [16]: 83.3%; viability, T/C [17]: 83.9%; viability, T/C [18]: 63.6%; viability, T/C [19]: 74.8%; viability, T/C [20]: 82.3%; viability, T/C [21]: 98.3%; viability, T/C [22]: 91.8%; viability, T/C [23]: 50.1%; viability, T/C [24]: 61.5%; viability, T/C [25]: 104%; viability, T/C [26]: 72.5%; viability, T/C [27]: 95.4%; viability, T/C [28]: 54.3%; viability, T/C [29]: 32.4%; viability, T/C [30]: 36.9%
Cn1nccc1Nc1nccc(-c2cc3c(s2)C(C)(C)N(CCN2CCOCC2)C3=O)n1 + C=CC(=O)N1CCN(c2nc(=O)n(-c3c(C)ccnc3C(C)C)c3nc(-c4c(O)cccc4F)c(F)cc23)C(C)C1	> 10	> 10	7.09	> 10	> 10	89.9	101	119	100	81.3	85.8	84.2	91.3	122	107	83.2	72.2	86.9	83.6	103	viability, T/C [16]: 98.7%; viability, T/C [17]: 78.4%; viability, T/C [18]: 38%; viability, T/C [19]: 95.3%; viability, T/C [20]: 95.7%; viability, T/C [21]: 111%; viability, T/C [22]: 82.8%; viability, T/C [23]: 77.7%; viability, T/C [24]: 67%; viability, T/C [25]: 73.4%; viability, T/C [26]: 86.5%; viability, T/C [27]: 92.1%; viability, T/C [28]: 82.5%; viability, T/C [29]: 77.8%; viability, T/C [30]: 73%

Reference: PubChem BioAssay AID1963865 (Molecular Pharmacology Branch, DTP, NCI, 2024)
